Experimental data published in patent US20050020557A1, “Method for treating diseases using HSP90-inhibiting agents in combination with enzyme inhibitors” (Kosan Biosciences, Inc., priority 2003, published 2005).

Key:
[1] = tested on: DLD-1 cells (human colorectal cancer cells); experiment: Cell viability (MTS) drug combination assay, combination index by median effect analysis, DLD-1 cells; type: cell-based; conditions: combination of enzyme inhibitor with 17-AAG, CI<1 synergism, CI=1 additivity, CI>1 antagonism
Description: Human colon adenocarcinoma cell line, DLD-1, and human breast adenocarcinoma cell line, SKBr-3, were obtained from American Type Culture Collection (manassas, Va.). […] 17-DMAG and 17-AAG were obtained using published procedures. Other cytotoxic agents were purchased commercially from suppliers such as Sigma Chemical Co. (St. Louis, Mo.) and Sequoia Research Products (Oxford, UK).
Cells were seeded in duplicate in 96-well microtiter plates at a density of 5,000 cells per well and allowed to attach overnight. […] Cell viability was determined using the MTS assay (Promega). For the drug combination assay, cells were seeded in duplicate in 96-well plates (5,000 cells/well). […] Based on the IC50 values of each individual drug, combined drug treatment was designed at constant ratios of two drugs, i.e., equivalent to the ratio of their IC50. Two treatment schedules were used: In one schedule, the cells were exposed to 24 hours of 17-AAG or 17-DMAG. The drug was then added to the cells and incubated for 48 hours. […] Cell viability was determined by the MTS assay.
Synergism, additivity or antagonism was determined by median effect analysis using the combination index (CI) calculated using Calcusyn (Biosoft, Cambridge, UK). […] The “enhancing” effect of two drugs can also be determined.

[2] = tested on: SKBr-3 cells (human breast cancer cells); experiment: Cell viability (MTS) drug combination assay, combination index by median effect analysis, SKBr-3 cells; type: cell-based; conditions: combination of enzyme inhibitor with 17-AAG, CI<1 synergism, CI=1 additivity, CI>1 antagonism; for CI value, 17-AAG Pre-Administration: 17-AAG 24 h before enzyme inhibitor (48 h); for CI value, 17-AAG Post-Administration: enzyme inhibitor 24 h, then 17-AAG for 48 h
Description: Human colon adenocarcinoma cell line, DLD-1, and human breast adenocarcinoma cell line, SKBr-3, were obtained from American Type Culture Collection (manassas, Va.). […] Other cytotoxic agents were purchased commercially from suppliers such as Sigma Chemical Co. (St. Louis, Mo.) and Sequoia Research Products (Oxford, UK). Cells were seeded in duplicate in 96-well microtiter plates at a density of 5,000 cells per well and allowed to attach overnight. […] Cell viability was determined using the MTS assay (Promega). […] Based on the IC50 values of each individual drug, combined drug treatment was designed at constant ratios of two drugs, i.e., equivalent to the ratio of their IC50. Two treatment schedules were used: In one schedule, the cells were exposed to 24 hours of 17-AAG or 17-DMAG. The drug was then added to the cells and incubated for 48 hours. […] Cell viability was determined by the MTS assay. Synergism, additivity or antagonism was determined by median effect analysis using the combination index (CI) calculated using Calcusyn (Biosoft, Cambridge, UK). […] The “enhancing” effect of two drugs can also be determined.

[3] = tested on: ErbB2 protein; experiment: ErbB2 protein expression in SKBr3 cells; type: cell-based, human
[4] = tested on: ErbB2 protein; experiment: ErbB2 protein expression in glioma cells; type: cell-based
[5] = clinical trials; twice-weekly regimen; sole agent; cited from earlier work

| Structure (SMILES) | CI value, 17-AAG Pre-Administration ([1]; 17-AAG 24 h before enzyme inhibitor (48 h)) | CI value, 17-AAG Post-Administration ([1]; enzyme inhibitor 24 h, then 17-AAG for 48 h) | CI value, 17-AAG Pre-Administration [2] | CI value, 17-AAG Post-Administration [2] | expression of ErbB2 protein [3] | expression of ErbB2 protein [4] | MTD (maximum tolerated dose) [5] |
| --- | --- | --- | --- | --- | --- | --- | --- |
| COc1cc2ncnc(Nc3ccc(F)c(Cl)c3)c2cc1OCCCN1CCOCC1 [Iressa] | 0.76 ± 0.37 | 0.41 ± 0.01 | 0.77 ± 0.29 | 0.67 ± 0.02 |  |  |  |
| CC(/C=C/C(=O)NO)=C\[C@@H](C)C(=O)c1ccc(N(C)C)cc1 [Trichostatin A] |  |  | 1.16 ± 0.02 | 0.91 ± 0.007 |  |  |  |
| C=CCNC1=C2C[C@@H](C)C[C@H](OC)[C@H](O)[C@@H](C)/C=C(\C)[C@H](OC(N)=O)[C@@H](OC)/C=C\C=C(/C)C(=O)NC(=CC1=O)C2=O [17-AAG, 17-(allylamino)-17-desmethoxygeldanamycin] |  |  |  |  | reduced the expression of ErbB2 protein | reduced the expression of ErbB2 protein | about 220 mg/m2 |
